# Experimental data published in patent publication US20170172958A1, “Compounds for Use in Controlling Body Fat” (priority 2014, published 2017).
# Key:
# [1] = Body mass of mice on a high fat diet, BSO in drinking water, four weeks; type: in vivo, Male C3H mice; conditions: BSO 30 mmol/L in drinking water, over four week treatment, control group showed significant weight gain
# From the text: (§1) Male C3H mice were used. Two cohorts of twelve mice were weaned and fed on a commercial standard diet (SDS Rat and Mouse No.3 Breeding diet (RM3)), containing 3.36 g% fat, 22.45 g % protein and 71.21 g % carbohydrate, till maturity. At 11 weeks of age, the standard diet was replaced with a high fat diet (Research Diets Inc, USA, D12492, containing 35 g % fat, from lard and soybean oil). One cohort was provided with BSO (30 mmol/L) in their drinking water, concomitant with the start of high fat feeding, while the other cohort (control group) received no treatment. […]
# (§2) Phenotyping tests were performed according to the European Phenotyping Resource for Standardised Screens (EMPReSS) from EUMORPHIA standardized protocols, available at http://empress.har.mrc.ac.uk. Body mass was measured daily on scales calibrated to 0.01 g. Metabolic rate was measured using indirect calorimetry (Oxymax; Columbus Instruments) to determine oxygen consumption and carbon dioxide production. Body composition (% fat tissue and % lean tissue) was assessed utilizing an EchoMRl-100 quantitative magnetic resonance whole body composition analyzer (Echo Medical Systems, Houston, Tex.).
# [2] = Body composition (EchoMRI) and dissected fat depots of mice on a high fat diet; type: in vivo, Male C3H mice
# From the text: (§3) Male C3H mice were used. Two cohorts of twelve mice were weaned and fed on a commercial standard diet (SDS Rat and Mouse No.3 Breeding diet (RM3)), containing 3.36 g% fat, 22.45 g % protein and 71.21 g % carbohydrate, till maturity. At 11 weeks of age, the standard diet was replaced with a high fat diet (Research Diets Inc, USA, D12492, containing 35 g % fat, from lard and soybean oil). One cohort was provided with BSO (30 mmol/L) in their drinking water, concomitant with the start of high fat feeding, while the other cohort (control group) received no treatment. The mice were kept in accordance with UK Home Office welfare guidelines and project license restrictions under controlled light (12-h light and 12-h dark cycle; dark 7 p.m.-7 a.m.), temperature (21° C.±2° C.) and humidity (55%±10%) conditions. They had free access to water (10 ppm chlorine) and food throughout the experiment.
# as §2
# [3] = Metabolic rate by indirect calorimetry (Oxymax); type: in vivo, Male C3H mice; conditions: dark and light phases, per unit weight, vs control, P<0.001
# From the text: as §1, §2
# [4] = Plasma amino acids and sulphur compounds (tCys, tHcy, glutathione, taurine); type: in vivo, Male C3H mice
# From the text: Further, SCD activity increases with high tCys concentration in both rodents and humans. tCys refers to all natural forms of circulating cysteine, such as cysteine (thiol form), cystine (disulphide form), cysteine-mixed disulphides with other thiol compounds, and protein-bound cysteine not in peptide linkage. tCys in the plasma or serum can be measured using techniques described, for example, in WO2010/010383.
# as §3
# [5] = Plasma ALT, lipid components, glucose and glycerol; type: in vivo, Male C3H mice; conditions: vs control
# From the text: as §3
# [6] = Plasma fatty acid concentrations (free and total); type: in vivo, Male C3H mice; conditions: vs control
# From the text: as §3
# [7] = system: stearoyl-coenzymeA desaturase (SCD); assay: SCD activity indices (SCD16, SCD18) from plasma fatty acid ratios; type: in vivo, Male C3H mice; conditions: vs control
# From the text: Compounds of Formula I inhibit SCD activity, which can be measured using one or more activity indices. These can be based on measurements of different fatty acid components of the blood plasma or serum.
# Activity indices are based on the amount of monounsaturated fatty acids relative to their respective […] precursors. The most commonly used SCD activity indices are derived from the ratio of palmitoleic to palmitic acids (“SCD16 index”), and the ratio of oleic to stearic acid (“SCD18 index”). These ratios are lowered with increased inhibition of SCD. SCD indices can either be calculated from plasma/serum free fatty acids, or from the total fatty acid pool, which also includes esterified fatty acids (e.g. triglycerides and phospholipids). Indices calculated from free fatty acid concentrations reflect SCD activity in adipose tissue, while those from total fatty acids reflect SCD activity in liver (Warensjo et al, Lipids Health Dis 2009, 8:37). Both in rodents and humans, SCD indices are associated with fat mass.
# as §3
# [8] = system: liver cells; assay: Liver histology, fat vacuolation score; type: in vivo, Male C3H mice; conditions: high fat diet, vs control
# From the text: as §3
# [9] = Fasting plasma glucose, insulin and HOMA-IR, eight week BSO study; type: in vivo, Male C3H mice; conditions: after six weeks of BSO treatment, vs control
# From the text: as §3
# Thus, BSO-treated mice had lower glucose plasma levels, and lower insulin concentrations compared to the control. […] The HOMA IR index is a calculation of insulin resistance based on fasting glucose and insulin plasma levels, the calculation being known to those skilled in the art. Leptin plasma levels are also shown.
# (§4) For the results presented in FIGS. 23 and 24, the experiments were carried out using the same conditions as described above (i.e. same mouse strain, mouse age, diet, and experimental design) except that the mice were treated for eight weeks with BSO, and the plasma for insulin, glucose, and leptin analysis was drawn after a 6-hour fast, after six weeks of BSO treatment.
# [10] = Plasma and liver reduced and total glutathione, eight week BSO study; type: in vivo, Male C3H mice; conditions: eight weeks BSO, vs control
# From the text: as §3, §4
# [11] = Findeisen et al, cited from earlier work
# [12] = system: adipocytes; conditions: Vigilanza et al; cited from earlier work
# [13] = rats, Ogihara et al; cited from earlier work
# [14] = dissected mice, vs control, P<0.001
smiles,measurement,setting,value
"CCCCS(=N)(=O)CCC(N)C(=O)O (centres unmarked) [BSO, buthionine sulfoximine]",body weight,[1],reduction in body weight
same,amount of brown fat mass,"[2]; dissected mice, vs control",similar
same,abdominal fat as a percentage of total body weight,[2]; [14],significantly lower
same,quantity of abdominal fat in grams,[2]; [14],significantly lower
same,lean mass,"[2]; echo MRI, difference between BSO and control cohorts",only a relatively small difference
same,quantity of body fat,"[2]; echo MRI, vs control mice, high fat diet",substantially lower
same,brown fat as a percentage of total fat mass,"[2]; vs control, P<0.05",higher
same,abdominal fat mass as a percentage of total fat mass,"[2]; vs control, P=0.055",trend towards decrease
same,carbon dioxide production,[3],greater
same,oxygen consumption,[3],significantly greater
same,concentration of amino acids in the plasma,[4]; difference between BSO and control cohorts,little difference
same,plasma glutathione concentrations,"[4]; four week study, vs control",decrease
same,total homocysteine (tHcy) plasma concentrations,[4]; vs control,larger concentrations
same,plasma taurine concentrations,[4]; vs control cohort,substantially lower
same,plasma tCys concentrations,"[4]; vs controls, all measured forms of cysteine",significantly and substantially lower
same,plasma glucose,[5]; four week study,decreased
same,plasma glycerol,[5],decreased
same,plasma high density lipoprotein (HDL),[5],lower
same,plasma low density lipoprotein (LDL),[5],lower
same,plasma non-esterified fatty acids,[5],lower
same,plasma total cholesterol,[5],lower
same,plasma triglycerides,"[5]; lower, particularly so",lower
same,plasma ALT concentrations,[5]; marker of NAFLD,substantially lower
same,"fatty acid plasma concentrations, a number of C14 to C22 fatty acids",[6]; free and total fatty acids,lower
same,free palmitic acid plasma concentration,[6],lower
same,free palmitoleic acid plasma concentration,[6],lower
same,oleic acid to stearic acid ratio (SCD18 index),[7]; free fatty acids in plasma,lower
same,ratio of palmitoleic acid to palmitic acid (SCD16 index),[7]; free fatty acids in plasma,lower
same,unsaturated/saturated fatty acid ratios (SCD16 and SCD18 activity indices),[7]; total fatty acid concentrations in plasma,lower
same,liver fat vacuolation,[8],absent
same,glucose plasma levels,[9]; 6-hour fast,lower
same,insulin plasma concentrations,[9]; 6-hour fast,lower
same,HOMA insulin-resistance (IR) index,[9]; from fasting glucose and insulin,significantly lower
same,liver rGSH levels,[10],similar
same,liver rGSH/tGSH ratio,[10],higher
same,liver tGSH levels,[10],lower
same,plasma rGSH/tGSH ratio,[10],similar
same,plasma reduced glutathione (rGSH),[10],lower
same,plasma total glutathione (tGSH),[10],lower
same,insulin sensitivity,[11],preserve insulin sensitivity
same,diet-induced obesity,[11]; mice,reduce
same,energy expenditure,[11]; mice,increase
same,locomotor activity,[11]; mice,increase
same,adipogenesis,[12],increased adipogenesis
same,intracellular glutathione,[12],decreases
same,triglycerides in adipocytes,[12],triglyceride accumulation
same,insulin resistance,[13],induces insulin resistance
